Reference: patent publication US10065990B2, “Cyclic peptide compound, and preparation method, pharmaceutical composition and use thereof” (HANGZHOU GUANYU BIO-MEDICAL CO., LTD, priority 2013, dated 2018)
Where two headings read alike, the source gives them in different places.

Experiments:
[1] = target: HDAC2 (Homo sapiens, UniProt Q92769); experiment: HDAC biochemical activity measurement (fluorescent substrate deacetylation);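 further: HDAC2 enzyme with an acetyl-lysine fluorescent substrate, then developer added, fluorescence read at excitation 360 nm and emission 460 nm, inhibition measured across several compound concentrations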; conditions: 37° C. 30 minutes
Experimental: (§2) The chemical activity of the compound is determined according to the degree of deacetylation inhibition of the HDAC enzyme. This experiment measured the degree of deacetylation related to tumor proliferation and metastasis of HDAC1, HDAC2, HDAC3, HDAC8, HDAC11 five subtypes HDAC enzymes. After the substrate containing an acetylated lysine side chain and HDAC enzyme are labeled with a fluorescent label, the fluorescent substrate is de acetyl. The fluorescent labeled substrate is cleaved by the enzyme, and the fluorescent substance is released, which generates 460 nm emission light under the excitation of 360 nm light.
(§3) HDAC substrate was diluted with reaction buffer to 200M (reaction concentration of 20M), the HDAC enzyme was diluted to the appropriate concentration, then added different concentrations of the test compounds and acted at 37° C. 30 minutes, and then added the same volume of 2-times concentration substrate developing solution (developer), incubated at room temperature for 15 minutes.

[2] = target: T1, HDAC7 (Homo sapiens, UniProt Q8WUI4); experiment: as above; conditions: HDAC7; 37° C. 30 minutes;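 further: fluorogenic deacetylation assay using acetyl-lysine substrate at 20 µM, enzyme and compound incubated 30 min at 37 °C, then developer added, fluorescence read at 360/460 nm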
T1 sequence (Q8WUI4 1-952): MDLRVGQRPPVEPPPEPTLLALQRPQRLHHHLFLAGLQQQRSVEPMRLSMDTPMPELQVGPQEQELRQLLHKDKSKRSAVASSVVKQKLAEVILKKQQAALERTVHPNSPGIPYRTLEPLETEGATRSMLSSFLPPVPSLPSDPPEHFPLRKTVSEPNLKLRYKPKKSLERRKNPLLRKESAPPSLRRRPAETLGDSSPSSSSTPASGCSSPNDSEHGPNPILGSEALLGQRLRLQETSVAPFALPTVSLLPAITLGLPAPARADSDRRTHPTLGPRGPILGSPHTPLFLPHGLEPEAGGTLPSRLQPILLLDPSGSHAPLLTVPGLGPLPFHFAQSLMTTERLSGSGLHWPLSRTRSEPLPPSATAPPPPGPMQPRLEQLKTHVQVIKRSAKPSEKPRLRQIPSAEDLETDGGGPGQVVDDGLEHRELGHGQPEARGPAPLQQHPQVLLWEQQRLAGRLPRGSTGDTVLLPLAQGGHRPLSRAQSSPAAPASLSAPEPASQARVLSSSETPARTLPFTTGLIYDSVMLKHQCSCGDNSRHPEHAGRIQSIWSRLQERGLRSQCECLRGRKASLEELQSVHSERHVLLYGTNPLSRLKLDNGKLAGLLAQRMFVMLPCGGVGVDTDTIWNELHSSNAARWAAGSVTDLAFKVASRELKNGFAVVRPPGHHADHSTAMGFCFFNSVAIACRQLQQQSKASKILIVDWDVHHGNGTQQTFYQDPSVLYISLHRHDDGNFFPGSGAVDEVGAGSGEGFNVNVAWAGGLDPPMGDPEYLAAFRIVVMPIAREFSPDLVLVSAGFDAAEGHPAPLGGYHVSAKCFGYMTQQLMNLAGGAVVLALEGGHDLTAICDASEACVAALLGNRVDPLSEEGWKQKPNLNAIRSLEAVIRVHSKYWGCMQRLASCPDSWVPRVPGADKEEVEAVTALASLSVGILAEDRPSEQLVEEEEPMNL

[3] = system: BGC-823 (human gastric cancer cells); experiment: MTT cancer cell growth inhibition; assay type: cell-based; conditions: Homo sapiens, BGC-823, 72 h, MTT, 72 hours incubation, read-out: GI50 BG
In short: (§1)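 Cells grown in DMEM or RPMI 1640 with 10% FBS were seeded at 1500/well and left overnight at 37° C., 5% CO2. Compounds at final 10^−5 to 10^−10 M were added in triplicate for 72 h. MTT was then added for 4 h, formazan dissolved in DMSO, and absorbance read at 570 nm to derive GI50.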

[4] = system: H1975 (non-small cell lung adenocarcinoma); experiment: MTT cancer cell growth inhibition; assay type: cell-based; conditions: Homo sapiens, NCI-H1975, 72 h, MTT, 72 hours incubation, H1975 cells; read-out: GI50 H1975
In short: as §1

[5] = target: T2, HDAC8 (Homo sapiens, UniProt Q9BY41); experiment: HDAC biochemical activity measurement (fluorescent substrate deacetylation); conditions: 37° C. 30 minutes
T2 sequence (Q9BY41 1-377): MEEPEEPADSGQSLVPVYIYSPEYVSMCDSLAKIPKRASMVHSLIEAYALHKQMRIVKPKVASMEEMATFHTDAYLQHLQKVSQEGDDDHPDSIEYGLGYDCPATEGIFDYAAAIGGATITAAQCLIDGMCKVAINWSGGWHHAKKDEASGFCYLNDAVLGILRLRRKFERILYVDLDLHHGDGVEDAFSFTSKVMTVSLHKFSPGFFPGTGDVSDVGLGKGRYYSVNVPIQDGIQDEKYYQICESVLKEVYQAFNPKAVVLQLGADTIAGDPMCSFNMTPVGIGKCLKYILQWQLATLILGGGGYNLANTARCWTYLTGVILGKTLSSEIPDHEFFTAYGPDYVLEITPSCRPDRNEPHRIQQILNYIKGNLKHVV
Experimental: as §2, §3

Sequence of HDAC2 (Q92769 whole entry, species assumed): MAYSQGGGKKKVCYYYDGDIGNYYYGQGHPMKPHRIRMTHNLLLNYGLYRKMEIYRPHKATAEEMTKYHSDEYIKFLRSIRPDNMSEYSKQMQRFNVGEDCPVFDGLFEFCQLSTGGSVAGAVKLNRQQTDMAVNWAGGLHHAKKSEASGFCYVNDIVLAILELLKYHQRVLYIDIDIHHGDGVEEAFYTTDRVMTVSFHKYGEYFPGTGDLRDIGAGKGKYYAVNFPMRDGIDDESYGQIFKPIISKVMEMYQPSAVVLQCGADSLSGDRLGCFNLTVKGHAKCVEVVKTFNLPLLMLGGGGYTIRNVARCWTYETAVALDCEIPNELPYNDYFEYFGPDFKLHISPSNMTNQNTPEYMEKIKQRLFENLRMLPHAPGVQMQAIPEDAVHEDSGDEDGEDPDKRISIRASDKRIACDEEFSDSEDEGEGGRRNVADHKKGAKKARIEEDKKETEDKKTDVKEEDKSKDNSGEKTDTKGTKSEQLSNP

Row | SMILES | IC50 [1] | IC50 HDAC7 [2] | GI50 [3] | GI50 [4] | IC50 [5] | GI50 ([3]; BGC-823 cells)
1 | C/C=C1\NC(=O)c2nc(ccc2F)CNC(=O)C[C@@H](/C=C/CCSC(C)=O)OC(=O)[C@H](Cc2cccc3ccccc23)NC1=O [Compound 78] | 37 nM | no activity | 60 nM | 63 nM | 39 nM | –
2 | CC(=O)SCC/C=C/[C@@H]1CC(=O)NCc2cc(F)cc(n2)C(=O)NC(=C(C)C)C(=O)N[C@@H](C(C)C)C(=O)O1 [Compound 88] | 35 nM | no activity | 30 nM | 53 nM | 43 nM | –
3 | C/C=C1\NC(=O)c2cc(F)cc(n2)CNC(=O)C[C@@H](/C=C/CCSC(C)=O)OC(=O)[C@H](Cc2ccc(O)cc2)NC1=O [Example 82] | 49 nM | no activity | 20 nM | 52 nM | 34 nM | –
4 | C/C=C1\NC(=O)c2cccc(n2)CNC(=O)C[C@@H](/C=C/CCSC(=O)CCCCCC)OC(=O)[C@H](C(C)C)NC1=O [Compound 2] | 163 nM | no activity | 60 nM | 34 nM | 252 nM | –
5 | C/C=C1\NC(=O)c2cccc(n2)CNC(=O)C[C@@H](/C=C/CCSC(=O)CCCCC)OC(=O)[C@H](C(C)C)NC1=O [Compound 3] | 158 nM | no activity | 60 nM | 29 nM | 169 nM | –
6 | C/C=C1\NC(=O)c2cc(C)cc(n2)CNC(=O)C[C@@H](/C=C/CCSC(C)=O)OC(=O)[C@H](Cc2ccccc2)NC1=O [Example 67] | 34 nM | no activity | 50 nM | 34 nM | 16 nM | –
7 | C=C1NC(=O)c2nc(ccc2F)CNC(=O)C[C@@H](/C=C/CCSC(C)=O)OC(=O)[C@H](C(C)C)NC1=O [Compound 84] | 43 nM | no activity | 10 nM | 55 nM | 29 nM | –

Compounds with a lower IC50 [1], results first:

Row | IC50 [1] | IC50 HDAC7 [2] | GI50 [3] | GI50 [4] | IC50 [5] | GI50 ([3]; BGC-823 cells) | SMILES
8 | 31 nM | no activity | – | 36 nM | 39 nM | 40 nM | C/C=C1\NC(=O)c2ccc(SC)c(n2)CNC(=O)C[C@@H](/C=C/CCSC(=O)CCCCCCC)OC(=O)[C@H](CC)NC1=O [Compound 173]
9 | 31 nM | no activity | 30 nM | 43 nM | 26 nM | – | C/C=C1\NC(=O)c2nc(ccc2F)CNC(=O)C[C@@H](/C=C/CCSC(C)=O)OC(=O)[C@H](Cc2ccc(O)cc2)NC1=O [Compound 81]
10 | 29 nM | no activity | 50 nM | 35 nM | 37 nM | – | C/C=C1\NC(=O)c2ccc(F)c(n2)CNC(=O)C[C@@H](/C=C/CCSC(C)=O)OC(=O)[C@H](CCCCNC(=O)OCC2c3ccccc3-c3ccccc32)NC1=O [Example 77]
11 | 19 nM | no activity | 20 nM | 61 nM | 42 nM | – | C/C=C1\NC(=O)c2cc(F)cc(n2)CNC(=O)C[C@@H](/C=C/CCSC(C)=O)OC(=O)[C@H](Cc2cccc3ccccc23)NC1=O [Example 79]
